Data as given in patent US12084472B2 (Ardelyx, Inc., priority 2015, dated 2024).

These molecules were tested against T1, human TGR5 (Homo sapiens, UniProt Q8TDU6) (assay: Cell-based TGR5 assay (cAMP generation, HTRF)). Details: HEK293 cells stably transfected with human TGR5; cAMP by HTRF; 30 minutes at 37° C.
T1 construct: expressed in transfected cells; host or cells: HEK293
T1 sequence (Q8TDU6 1-330): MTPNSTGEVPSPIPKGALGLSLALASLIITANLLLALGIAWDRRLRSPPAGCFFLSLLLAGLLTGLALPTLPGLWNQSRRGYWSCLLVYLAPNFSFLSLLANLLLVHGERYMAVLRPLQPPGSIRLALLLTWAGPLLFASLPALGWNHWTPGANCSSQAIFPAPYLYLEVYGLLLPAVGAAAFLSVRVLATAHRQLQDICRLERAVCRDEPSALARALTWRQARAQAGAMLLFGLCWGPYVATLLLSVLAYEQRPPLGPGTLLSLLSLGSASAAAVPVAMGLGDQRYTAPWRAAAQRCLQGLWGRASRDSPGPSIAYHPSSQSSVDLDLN
Method in brief: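 Read-out was HTRF detection of cAMP, converted to concentration via a standard curve and fitted (3-parameter logistic) for pEC50 and maximal response. Agonist stimulation used HEK293 cells stably transfected with human TGR5, incubated 30 min at 37° C in IBMX-containing buffer at 0.05 nM to 10 μM compound.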
In the case of `CN(CCCCNC(=O)NCCOCCOCCNC(=O)NCCOCCOCCNC(=O)NCCCCN(C)S(=O)(=O)c1ccc(Cl)c(COC2(c3cnccc3-c3ccccc3OC3CC3)CC2)c1)S(=O)(=O)c1ccc(Cl)c(COC2(c3cnccc3-c3ccccc3OC3CC3)CC2)c1` [Compound I-737, 3-(4-[N-methyl[4-chloro-3-([1-[4-(2-cyclopropoxyphenyl)pyridin-3-yl]cyclopropoxy]methyl)benzene]sulfonamido]butyl)-1-[2-(2-[2-[([2-[2-(2-[[(4-[N-methyl[4-chloro-3-([1-[4-(2-cyclopropoxyphenyl)pyridin-3-yl]cyclopropoxy]methyl)benzene]sulfonamido]butyl)carbamoyl]amino]ethoxy)ethoxy]ethyl]carbamoyl)amino]ethoxy]ethoxy)ethyl]urea], the “pEC50 Human TGR5” value is reported as “B (B is a pEC50 of 6 to 6.9)”.

Same assay, conditions: HEK293 cells stably transfected with human TGR5; cAMP by HTRF; 30 minutes at 37° C.; read-out: pEC50 Human TGR5 (converted)
For `O=C([C@@H](O)[C@@H](O)[C@H](O)[C@@H](O)CO)N(CCCSc1ccc(Cl)c(COC2(c3cnccc3-c3ccccc3OC3CC3)CC2)c1)C1CCOCC1` [Compound I-565, (2S,3S,4R,5S)-N-(3-{[4-chloro-3-({1-[4-(2-cyclopropoxyphenyl)pyridin-3-yl]cyclopropoxy}methyl)phenyl]sulfanyl}propyl)-2,3,4,5,6-pentahydroxy-N-(oxan-4-yl)hexanamide], the EC50 was 126 to 1000 nM. `O=C(CN1CCC(NC(=O)NCCCCSc2ccc(Cl)c(COC3(c4cnccc4-c4ccccc4OC4CC4)CC3)c2)CC1)NC[C@H](O)[C@@H](O)[C@H](O)[C@H](O)CO` [Compound I-633, 2-(4-{[(4-{[4-chloro-3-({1-[4-(2-cyclopropoxyphenyl)pyridin-3-yl]cyclopropoxy}methyl)phenyl]sulfanyl}butyl)carbamoyl]amino}piperidin-1-yl)-N-[(2S,3R,4R,5R)-2,3,4,5,6-pentahydroxyhexyl]acetamide] showed an EC50 of under 100 nM. For `CC(=O)NCCCN(CCCSc1ccc(Cl)c(COC2(c3cnccc3-c3ccccc3OC3CC3)CC2)c1)C(=O)[C@@H](O)[C@@H](O)[C@H](O)[C@@H](O)CO` [Compound I-594, (2S,3S,4R,5S)-N-(3-{[4-chloro-3-({1-[4-(2-cyclopropoxyphenyl)pyridin-3-yl]cyclopropoxy}methyl)phenyl]sulfanyl}propyl)-N-(3-acetamidopropyl)-2,3,4,5,6-pentahydroxyhexanamide], the EC50 was under 100 nM. In the case of `O=C(CCC1CN(S(=O)(=O)c2ccc(Cl)c(COC3(c4cnccc4-c4ccccc4OC4CC4)CC3)c2)C1)NC[C@H](O)[C@@H](O)[C@H](O)[C@H](O)CO` [Compound I-448, 3-{1-[4-chloro-3-({1-[4-(2-cyclopropoxyphenyl)pyridin-3-yl]cyclopropoxy}methyl)benzenesulfonyl]azetidin-3-yl}-N-[(2S,3R,4R,5R)-2,3,4,5,6-pentahydroxyhexyl]propanamide], the EC50 is reported as under 100 nM. Molecule `O=C(CCCCc1cc(Cl)c(COC2(c3cnccc3-c3ccccc3OC3CC3)CC2)cc1Cl)N[C@@H](CO)[C@@H](O)[C@H](O)[C@H](O)CO` [Compound I-156, 5-[2,5-dichloro-4-({1-[4-(2-cyclopropoxyphenyl)pyridin-3-yl]cyclopropoxy}methyl)phenyl]-N-[(2S,3R,4S,5R)-1,3,4,5,6-pentahydroxyhexan-2-yl]pentanamide] has an EC50 of under 100 nM. Molecule `CS(=O)(=O)CCN(CCCCCc1cc(Cl)c(COC2(c3cnccc3-c3ccccc3OC3CC3)CC2)cc1Cl)C(=O)[C@@H](O)[C@@H](O)[C@H](O)[C@@H](O)CO` (stereo in doubt) [Compound I-226, (2S,3S,4R,5S)-N-{5-[2,5-dichloro-4-({1-[4-(2-cyclopropoxyphenyl)pyridin-3-yl]cyclopropoxy}methyl)phenyl]pentyl}-2,3,4,5,6-pentahydroxy-N-(2-methanesulfonylethyl)hexanamide] has an EC50 of under 100 nM. `O=C([C@@H](O)[C@@H](O)[C@H](O)[C@@H](O)CO)N(CCCCSc1ccc(Cl)c(COC2(c3cnccc3-c3ccccc3OC3CC3)CC2)c1)CCOCCO` [Compound I-512, (2S,3S,4R,5S)-N-(4-{[4-chloro-3-({1-[4-(2-cyclopropoxyphenyl)pyridin-3-yl]cyclopropoxy}methyl)phenyl]sulfanyl}butyl)-2,3,4,5,6-pentahydroxy-N-[2-(2-hydroxyethoxy)ethyl]hexanamide] was tested, and the EC50 was under 100 nM. `CC(=O)NCCCN(CCCCSc1ccc(Cl)c(COC2(c3cnccc3-c3ccccc3OC3CC3)CC2)c1)C(=O)[C@@H](O)[C@@H](O)[C@H](O)[C@@H](O)CO` [Compound I-566, (2S,3S,4R,5S)-N-(4-{[4-chloro-3-({1-[4-(2-cyclopropoxyphenyl)pyridin-3-yl]cyclopropoxy}methyl)phenyl]sulfanyl}butyl)-N-(3-acetamidopropyl)-2,3,4,5,6-pentahydroxyhexanamide] showed an EC50 of under 100 nM. `CC(CCSc1ccc(Cl)c(COC2(c3cnccc3-c3ccccc3OC3CC3)CC2)c1)C(=O)N(C)C[C@H](O)[C@@H](O)[C@H](O)[C@H](O)CO` (stereo partly drawn) [Compound I-689, 4-{[4-chloro-3-({1-[4-(2-cyclopropoxyphenyl)pyridin-3-yl]cyclopropoxy}methyl)phenyl]sulfanyl}-N,2-dimethyl-N-[(2S,3R,4R,5R)-2,3,4,5,6-pentahydroxyhexyl]butanamide] gave an EC50 of under 100 nM. `N[C@@H]1[C@@H](O)[C@@H](O[C@@H]2[C@@H](O)[C@H](O[C@H]3O[C@H](CNC(=O)CCCCc4cc(Cl)c(COC5(c6cnccc6-c6ccccc6OC6CC6)CC5)cc4Cl)[C@@H](O)[C@H](O)[C@H]3O)[C@@H](N)C[C@H]2N)O[C@H](CO)[C@H]1O` (stereo in doubt) [Compound I-181, N-{[(2R,3S,4S,5R,6R)-6-{[(1R,2R,3S,4R,6S)-4,6-diamino-3-{[(2S,3R,4S,5S,6R)-4-amino-3,5-dihydroxy-6-(hydroxymethyl)oxan-2-yl]oxy}-2-hydroxycyclohexyl]oxy}-3,4,5-trihydroxyoxan-2-yl]methyl}-5-[2,5-dichloro-4-({1-[4-(2-cyclopropoxyphenyl)pyridin-3-yl]cyclopropoxy}methyl)phenyl]pentanamide] was tested, and the EC50 was under 100 nM. `Cc1cc(COC2(c3cnccc3-c3ccccc3OC3CC3)CC2)c(Cl)cc1CCCCC(=O)N(C)C[C@H](O)[C@@H](O)[C@H](O)[C@H](O)CO` [Compound I-146, 5-[5-chloro-4-({1-[4-(2-cyclopropoxyphenyl)pyridin-3-yl]cyclopropoxy}methyl)-2-methylphenyl]-N-methyl-N-[(2S,3R,4R,5R)-2,3,4,5,6-pentahydroxyhexyl]pentanamide] gave an EC50 of under 100 nM. `CC(CCCCN(CCOCCO)C(=O)[C@@H](O)[C@@H](O)[C@H](O)[C@@H](O)CO)c1ccc(Cl)c(CNC2(c3cnccc3-c3ccccc3OC3CC3)CC2)c1` (stereo partly drawn) [Compound I-288, (2S,3S,4R,5S)-N-(5-{4-chloro-3-[({1-[4-(2-cyclopropoxyphenyl)pyridin-3-yl]cyclopropyl}amino)methyl]phenyl}hexyl)-2,3,4,5,6-pentahydroxy-N-[2-(2-hydroxyethoxy)ethyl]hexanamide] was tested, and the EC50 was under 100 nM. Molecule `O=C(/C=C/C1CCN(S(=O)(=O)c2ccc(Cl)c(COC3(c4cnccc4-c4ccccc4OC4CC4)CC3)c2)C1)NC[C@H](O)[C@@H](O)[C@H](O)[C@H](O)CO` (stereo partly drawn) [Compound I-450, (2E)-3-{1-[4-chloro-3-({1-[4-(2-cyclopropoxyphenyl)pyridin-3-yl]cyclopropoxy}methyl)benzenesulfonyl]pyrrolidin-3-yl}-N-[(2S,3R,4R,5R)-2,3,4,5,6-pentahydroxyhexyl]prop-2-enamide] has an EC50 of under 100 nM. `O=C([C@@H](O)[C@@H](O)[C@H](O)[C@@H](O)CO)N(CCCCSc1ccc(Cl)c(COC2(c3cnccc3-c3ccccc3OC3CC3)CC2)c1)CCN1CCS(=O)(=O)CC1` [Compound I-524, (2S,3S,4R,5S)-N-(4-{[4-chloro-3-({1-[4-(2-cyclopropoxyphenyl)pyridin-3-yl]cyclopropoxy}methyl)phenyl]sulfanyl}butyl)-N-[2-(1,1-dioxo-1λ^6,4-thiomorpholin-4-yl)ethyl]-2,3,4,5,6-pentahydroxyhexanamide] was tested, and the EC50 was 126 to 1000 nM. For `Cc1cc(CNC2(c3cnccc3-c3ccccc3OC3CC3)CC2)c(C)cc1CCCCC(=O)NC[C@H](O)[C@@H](O)[C@H](O)[C@H](O)CO` [Compound I-148, 5-{4-[({1-[4-(2-cyclopropoxyphenyl)pyridin-3-yl]cyclopropyl}amino)methyl]-2,5-dimethylphenyl}-N-[(2S,3R,4R,5R)-2,3,4,5,6-pentahydroxyhexyl]pentanamide], the EC50 was 126 to 1000 nM. `Cc1ccc(SCCCN(CCS(C)(=O)=O)C[C@H](O)[C@@H](O)[C@H](O)[C@H](O)CO)cc1COC1(c2cnccc2-c2ccccc2OC2CC2)CC1` [Compound I-614, (2R,3R,4R,5S)-6-[(3-{[3-({1-[4-(2-cyclopropoxyphenyl)pyridin-3-yl]cyclopropoxy}methyl)-4-methylphenyl]sulfanyl}propyl)(2-methanesulfonylethyl)amino]hexane-1,2,3,4,5-pentol] showed an EC50 of 126 to 1000 nM. `O=C(CCCSc1ccc(Cl)c(COC2(c3cnccc3-c3ccccc3OC3CC3)CC2)c1)NC[C@H](O)[C@@H](O)[C@H](O)[C@H](O)CO` [Compound I-498, 4-[[4-Chloro-3-([1-[4-(2-cyclopropoxyphenyl)pyridin-3-yl]cyclopropoxy]methyl)phenyl]sulfanyl]-N-[(2S,3R,4R,5R)-2,3,4,5,6-pentahydroxyhexyl]butanamide] was tested, and the EC50 was under 100 nM.
